“And” between values parts separate entries of the source, which are not always exact repeats. Equal values may be shown once.
Columns and labels:
[1] = Hydrolytic stability study in pH 8 phosphate buffer (NMR monitoring); assay type: physicochemical; conditions: for Concentration over Time: 100 mM phosphate buffer pH=8 (D2O); for ln of concentration: pH=8 buffer
Method: In separate 5 mm NMR tubes, picrotoxinin (1, 1 mg) or 5-methyl picrotoxinin (20, 1 mg) were dissolved in 1 mL of 100 mM phosphate buffer (pH=8, prepared with D20). Spectra were acquired at 0, 6, 12, 24, 36, 48, 60, 72, 84, 96, and 120 h. and monitored for the amount of hydrolysis product (Table 1).

Rat GABAA Ion Channel = assay: Non-selective Rat GABAA Ion Channel [3H] TBOB Binding (Antagonist Radioligand) Assay; conditions: displacement of [3H] TBOB, rat cerebral cortex GABAA receptors
Method: A Non-selective Rat GABAA Ion Channel [3H] TBOB Binding (Antagonist Radioligand) Assay (Catalog #3817) was conducted by Eurofins Pharma Discovery Service of Eurofins Cerep, France. The assay is based on these publications: Lewin, A. H. et al. Mol. Pharmacol. 1989, 35, 189, and Schwartz, R. D.; Mindlin, M. C. J. Pharmacol. Exp. Ther. 1987, 244, 963.
Compound binding was calculated as a percentage inhibition of the binding of the radioactive ligand [3H] TBOB (t-[3H]Butylbicycloorthobenzoate) for RAT GABAA Ion Channels.
A 20.0 mM stock solution was prepared in DMSO from pure solid 5-methyl-picrotoxinin (20) to evaluate radioligand displacement of [3H] TBOB from rat cerebral cortex GABAA receptors at final concentrations of 200 μM, 63 μM, 20 μM, 6.3 μM, 2.0 μM, and 0.6 μM.

mice = conditions: cited from earlier work

| Structure (SMILES) | Concentration over Time ([1]; 0 h) [µM] | Concentration over Time ([1]; 6 h) [µM] | Concentration over Time ([1]; 12 h) [µM] | Concentration over Time ([1]; 24 h) [µM] | Concentration over Time ([1]; 36 h) [µM] | Concentration over Time ([1]; 48 h) [µM] | Concentration over Time ([1]; 60 h) [µM] | Concentration over Time ([1]; 72 h) [µM] | Concentration over Time ([1]; 84 h) [µM] | Concentration over Time ([1]; 96 h) [µM] | Concentration over Time ([1]; 120 h) [µM] | ln of concentration ([1]; 0 h) | ln of concentration ([1]; 6 h) | ln of concentration ([1]; 12 h) | ln of concentration ([1]; 24 h) | ln of concentration ([1]; 36 h) | ln of concentration ([1]; 48 h) | ln of concentration ([1]; 60 h) | ln of concentration ([1]; 72 h) | ln of concentration ([1]; 84 h) | further results |
| --- | --- | --- | --- | --- | --- | --- | --- | --- | --- | --- | --- | --- | --- | --- | --- | --- | --- | --- | --- | --- | --- |
| C=C(C)C1C2OC(=O)C1C1(O)C[C@H]3O[C@]34C(=O)OC2C14C (single isomer, unassigned; (-)) [compound 1, (−)-picrotoxinin] | 3420 | 3257 | 2974 | 2124 | 1879 | 1413 | 1281 | 1167 | 914.4 | 775.5 | 529.4 | 1.23 | 1.181 | 1.09 | 0.7534 | 0.6308 | 0.3459 | 0.2476 | 0.1546 | −0.08945 | ln of concentration ([1]; 96 h): −0.2542; ln of concentration ([1]; 120 h): −0.636; IC50 (Rat GABAA Ion Channel): 0.2 µM; Ki (Rat GABAA Ion Channel): 0.2 µM |
| C=C(C)C1C2OC(=O)C1(C)C1(O)C[C@H]3O[C@]34C(=O)OC2C14C (stereo partly drawn) [compound 20, 5-methylpicrotoxinin] | 3270 | 3000 | 2771 | 2440 | 2195 | 2031 | 1912 | 1797 | 1686 | 1643 | 1535 | 1.185 | 1.099 | 1.019 | 0.8921 | 0.786 | 0.7086 | 0.6483 | 0.586 | 0.5221 | aqueous stability compared with compound (1) ([1]; pH 8): slightly improved; pseudo-first order rate constant compared with compound (1) ([1]; pH 8): more than halving; ln of concentration ([1]; 96 h): 0.4967; ln of concentration ([1]; 120 h): 0.4287; IC50 (Rat GABAA Ion Channel): 9.2 µM and 9 µM; Ki (Rat GABAA Ion Channel): 8.2 µM |
| C[C@@H]1CC[C@]23OC(=O)[C@@]4(O)O[C@H](C[C@@]124)[C@@]1(O)C(=O)OC[C@@]31C [jiadifenolide] |  |  |  |  |  |  |  |  |  |  |  |  |  |  |  |  |  |  |  |  | convulsive signature (mice): no convulsive signature |
